Reference: patent publication US7560241B2, “Methods and compositions for modulating mitochondrial aldehyde dehydrogenase-2” (The Board of Trustees of the Leland Stanford Junior …, priority 2003, dated 2009)
Several values for one entry are separate records, joined by “and”; a condition that tells them apart may be missing. Identical values can stand only once. Entries after “also recorded” stand apart in the source; their conditions may differ. Like-named read-outs stand apart in the source and are kept apart here.

Assays:
rat hearts = assay: ischemia/reperfusion damage in ex vivo Langendorff rat hearts, infarct size by TTC staining; conditions: for ischemic damage by TTC staining of heart sections: ischemia/reperfusion
AldDH2 = assay: aldehyde dehydrogenase enzymatic activity in homogenates of ex vivo Langendorff rat hearts (NADH at 340 nm, acetaldehyde substrate); type: biochemical; conditions: for inhibition of AldDH2: during ischemia reperfusion; for rate of NADH accumulation (absorbance at 340 nm), FIG. 4: ethanol before ischemia vs I/R alone or normoxia, cyanamide in ethanol treated ischemic or normoxic samples
Procedure: Ex vivo Langendorff preparation of rat hearts were used as a model to assess the damage incurred by no-flow ischemia and reperfusion injury. This is an experimental model that mimics the clinical situation of myocardial infarction in patients. Rat hearts were excised and cannulated on a Langendorff apparatus via the aorta. Retrograde perfusion was carried out using the standard oxygenated Kreb-Hensleit buffer maintained at 37° C. All hearts were stabilized by an initial 5- to 10-minute perfusion period followed by delivery of different cardioprotective agents or AldDH2 inhibitors for 10-30 minutes, depending on the reagent. […] Ischemia was then introduced by 25 minutes of no-flow followed by 60 minutes of reperfusion. The degree of ischemia/reperfusion damage was measured by two independent commonly accepted parameters. […] In another assay, creatine phosphate kinase activity was measured from reperfusate of each heart collected during reperfusion. […] Homogenates from each heart was also obtained from a separate section of the identical sample and analyzed for aldehyde dehydrogenase enzymatic activity. Enzymatic activity was determined by a standard spectrophotometric method described above using acetaldehyde as the substrate and NAD^+ as a cofactor. FIG. 2: An experimental protocol using an ex vivo Langendorff heart. Rat hearts were excised and cannulated on a Langendorff apparatus via aorta. Retrograde perfusion was carried out using the standard oxygenated Kreb-Hensleit buffer maintained at 37° C. […] Peptides used were a selective activator (εV1-7) or inhibitor (εV1-2) or epsilon protein kinase C (εPKC). Ischemia was then introduced by 25 minutes of no-flow followed by 60 minutes of reperfusion. […] FIG. 3: Formation of acetic acid from acetaldehyde by action of aldehyde dehydrogenase. Enzymatic activity of aldehyde dehydrogenase is determined by a standard photospectrometric method using acetaldehyde as a substrate. In this reaction, aldehyde dehydrogenase catalyzes the oxidation of acetaldehyde to acetic acid. Concomitantly, NAD^+ is reduced to NADH resulting in an increase in absorbance at 340 nm wavelength in a photospectrometer. The rate of NADH increase is proportional to the enzymatic activity of aldehyde dehydrogenase.

O=[N+]([O-])OCC(CO[N+](=O)[O-])O[N+](=O)[O-] [Nitroglycerin, nitroglycerin]
increase in infarct damage (rat hearts): 36% and 31% | increase in ischemia/reperfusion damage as measured by infarct size (rat hearts): 29%

N#CN [cyanamide]
effect on induction of AldDH2 activity by ethanol or εPKC agonist peptide (AldDH2; co-treatment, ischemia/reperfusion): effect of induction is also greatly abolished | inhibition of AldDH2 (AldDH2; cyanamide treatment in the absence of ethanol or peptide): 63% | inhibition of AldDH2 (AldDH2; cyanamide treatment in the presence of ethanol): 64% | inhibition of AldDH2 (AldDH2; cyanamide treatment in the presence of peptide): 74% | rate of NADH accumulation (absorbance at 340 nm), FIG. 4 (AldDH2): reduction of NADH accumulation | AldDH2 activity in normoxic heart samples (AldDH2; normoxic): inhibition of AldDH2 activity | increase in ischemia/reperfusion damage as measured by infarct size (rat hearts; agent alone, compared to no treatment control): 49% | increase in infarct damage (rat hearts; in samples treated with ethanol): 62% | increase in infarct damage (rat hearts; in samples treated with εPKC agonist peptide): 56% | ischemic damage by TTC staining of heart sections (rat hearts; compared to control heart): eliminates the protective effect of ethanol and leads to an even greater damage as compared to control | cardiac damage under normoxic condition (rat hearts; normoxic, compared to control heart): does not produce any significantly greater damage than the control heart; also recorded: did not lead to any greater cardiac damage

CCO [ethanol]
increase in AldHD2 activity (AldDH2; as compared to ischemia/reperfusion control, ethanol 50 mM for 10 minutes, peptide 1 μM): 25% | rate of NADH accumulation (absorbance at 340 nm), FIG. 4 (AldDH2): increase in the rate of absorbance | ischemic damage by TTC staining of heart sections (rat hearts; compared to control heart): leads to cardioprotection
